Legend:
Format in all cases: functional
[1] = system: Mycobacterium tuberculosis; test: Antimicrobial activity against Mycobacterium tuberculosis H37Rv by agar dilution method
[2] = system: Mycobacterium tuberculosis; test: Antimicrobial activity against Mycobacterium tuberculosis H160 by agar dilution method
Staphylococcus aureus [3] = test: Antimicrobial activity against Staphylococcus aureus ATCC 105487 by agar dilution method
Candida albicans = test: Antifungal activity against Candida albicans by agar dilution method
Staphylococcus aureus [4] = test: Antimicrobial activity against Staphylococcus aureus SA85 by agar dilution method
Staphylococcus aureus [5] = test: Antimicrobial activity against Staphylococcus aureus SA52 by agar dilution method
Staphylococcus aureus [6] = test: Antimicrobial activity against Staphylococcus aureus ATCC 25923 by agar dilution method
Escherichia coli = test: Antimicrobial activity against Escherichia coli ATCC 25922 by agar dilution method
[7] = system: Mycobacterium tuberculosis; test: Antimicrobial activity against Mycobacterium tuberculosis H190 by agar dilution method
Enterococcus faecalis = test: Antimicrobial activity against Enterococcus faecalis ATCC 29212 by agar dilution method
Pseudomonas aeruginosa = test: Antimicrobial activity against Pseudomonas aeruginosa ATCC 27753 by agar dilution method
Kluyveromyces marxianus = test: Antifungal activity against Candida pseudotropicalis by agar dilution method
Bacillus subtilis = test: Antimicrobial activity against Bacillus subtilis ATCC 6633 by agar dilution method
Staphylococcus aureus [8] = test: Antimicrobial activity against Staphylococcus aureus SA87 by agar dilution method

Compound | MIC [1] | MIC [2] | MIC (Staphylococcus aureus [3]) | MIC (Candida albicans) | MIC (Staphylococcus aureus [4]) | MIC (Staphylococcus aureus [5]) | MIC (Staphylococcus aureus [6]) | MIC (Escherichia coli) | MIC [7] | MIC (Enterococcus faecalis) | MIC (Pseudomonas aeruginosa) | MIC (Kluyveromyces marxianus) | MIC (Bacillus subtilis) | MIC (Staphylococcus aureus [8])
CCCCC/C=C/C/C=C/CCCCCCCC(=O)OC(COC(=O)CCCCCCCCC)CO[C@@H]1O[C@H](CO)[C@H](O)[C@H](O)[C@H]1O (mixture of isomers) | > 128 µg/mL | > 128 µg/mL | 64 µg/mL | > 128 µg/mL | 64 µg/mL | > 128 µg/mL | > 128 µg/mL | > 128 µg/mL | > 128 µg/mL | 128 µg/mL | > 128 µg/mL | > 128 µg/mL | 128 µg/mL | 64 µg/mL
CCCCC/C=C/C/C=C/CCCCCCCC(=O)OC(COC(=O)CCCCCCC)CO[C@@H]1O[C@H](CO)[C@H](O)[C@H](O)[C@H]1O (mixture of isomers) | 64 µg/mL | 64 µg/mL | > 128 µg/mL | > 128 µg/mL | > 128 µg/mL | > 128 µg/mL | > 128 µg/mL | > 128 µg/mL | 128 µg/mL | > 128 µg/mL | > 128 µg/mL | > 128 µg/mL | 128 µg/mL | 128 µg/mL
CC/C=C/C/C=C/C/C=C/CCCCCCCC(=O)OCC(CO[C@@H]1O[C@H](CO)[C@H](O)[C@H](O)[C@H]1O)OC(=O)CCCCCCC/C=C/C/C=C/C/C=C/CC (mixture of isomers) | > 128 µg/mL | > 128 µg/mL | > 128 µg/mL | > 128 µg/mL | > 128 µg/mL | > 128 µg/mL | 128 µg/mL | > 128 µg/mL | > 128 µg/mL | > 128 µg/mL | > 128 µg/mL | > 128 µg/mL | > 128 µg/mL | > 128 µg/mL
CCCCCCCC/C=C/CCCCCCCC(=O)OC(COC(=O)CCCCCCCCC)CO[C@@H]1O[C@H](CO)[C@H](O)[C@H](O)[C@H]1O (mixture of isomers) | > 128 µg/mL | > 128 µg/mL | > 128 µg/mL | > 128 µg/mL | 128 µg/mL | > 128 µg/mL | 128 µg/mL | > 128 µg/mL | > 128 µg/mL | > 128 µg/mL | > 128 µg/mL | > 128 µg/mL | 32 µg/mL | > 128 µg/mL
CC/C=C/C/C=C/C/C=C/CCCCCCCC(=O)OC(COC(=O)CCCCCCCCC)CO[C@@H]1O[C@H](CO)[C@H](O)[C@H](O)[C@H]1O (mixture of isomers) | > 128 µg/mL | > 128 µg/mL | > 128 µg/mL | > 128 µg/mL | 64 µg/mL | > 128 µg/mL | > 128 µg/mL | > 128 µg/mL | > 128 µg/mL | > 128 µg/mL | > 128 µg/mL | > 128 µg/mL | > 128 µg/mL | 32 µg/mL
CC/C=C/C/C=C/C/C=C/CCCCCCCC(=O)OC(COC(=O)CCCCCCC)CO[C@@H]1O[C@H](CO)[C@H](O)[C@H](O)[C@H]1O (mixture of isomers) | 128 µg/mL | 128 µg/mL | > 128 µg/mL | > 128 µg/mL | > 128 µg/mL | > 128 µg/mL | > 128 µg/mL | > 128 µg/mL | 128 µg/mL | > 128 µg/mL | > 128 µg/mL | > 128 µg/mL | 128 µg/mL | 64 µg/mL
CCCCCCCC/C=C/CCCCCCCC(=O)OC(COC(=O)CCCCCCC)CO[C@@H]1O[C@H](CO)[C@H](O)[C@H](O)[C@H]1O (mixture of isomers) | 128 µg/mL | 64 µg/mL | > 128 µg/mL | > 128 µg/mL | > 128 µg/mL | > 128 µg/mL | > 128 µg/mL | > 128 µg/mL | 64 µg/mL | > 128 µg/mL | > 128 µg/mL | > 128 µg/mL | 128 µg/mL | 64 µg/mL
CCCCC/C=C/C/C=C/CCCCCCCC(=O)OCC(CO[C@@H]1O[C@H](CO)[C@H](O)[C@H](O)[C@H]1O)OC(=O)CCCCCCC/C=C/C/C=C/CCCCC (mixture of isomers) | 128 µg/mL | 128 µg/mL | > 128 µg/mL | > 128 µg/mL | > 128 µg/mL | > 128 µg/mL | > 128 µg/mL | > 128 µg/mL | 128 µg/mL | > 128 µg/mL | > 128 µg/mL | > 128 µg/mL | 128 µg/mL | 128 µg/mL
CCCCCCCC/C=C/CCCCCCCC(=O)OCC(CO[C@@H]1O[C@H](CO)[C@H](O)[C@H](O)[C@H]1O)OC(=O)CCCCCCC/C=C/CCCCCCCC (mixture of isomers) | > 128 µg/mL | > 128 µg/mL | > 128 µg/mL | > 128 µg/mL | > 128 µg/mL | > 128 µg/mL | > 128 µg/mL | > 128 µg/mL | > 128 µg/mL | > 128 µg/mL | > 128 µg/mL | > 128 µg/mL | > 128 µg/mL | > 128 µg/mL

— ChEMBL document CHEMBL1149760, “Chemoenzymatic synthesis and antimicrobial activity evaluation of monogalactosyl diglycerides” (2008)
